Laboratory results published in patent publication US9738630B2, “Inhibitors of lysine methyl transferase” (BRISTOL-MYERS SQUIBB COMPANY, priority 2013, dated 2017).

These molecules were tested against recombinant EZH2-641F complex (EZH2 Y641F/EED/SUZ12/RbAp48/AEBP2) (Homo sapiens (Human), UniProt Q15910, Y641F) (assay: EZH2 Histone Methyl Transferase Assay (scintillation proximity assay)). Conditions: 350 nM histone peptide substrate, 500 nM 3H-SAM, 3 hours at room temperature.
Assay type: biochemical
From the text: EZH2 Histone Methyl Transferase Assay
The effectiveness of compounds of the present invention as inhibitors of hitone methyl transferases can be readily tested by assays known to those skilled in the art. For example, in vitro histone methyl transferase assays may be conducted with a relevant purified histone methyl transferase and an appropriate synthetic substrate to determine the inhibitory activity of the compounds. […] Reaction products were captured by binding to strepavidin-conjugated imaging beads. Incorporation of radioactive methyl group into the histone peptide substrate was determined in Leadseeker (GE Healthcare) by means of scintiallation proximity assay. […] Compounds were dissolved at 10 mM in dimethylsulfoxide (DMSO) and evaluated at eleven concentrations. EC50 values were derived by non-linear regression analysis.

Sequence of recombinant EZH2-641F complex (EZH2 Y641F/EED/SUZ12/RbAp48/AEBP2) (Q15910 whole entry Y641F): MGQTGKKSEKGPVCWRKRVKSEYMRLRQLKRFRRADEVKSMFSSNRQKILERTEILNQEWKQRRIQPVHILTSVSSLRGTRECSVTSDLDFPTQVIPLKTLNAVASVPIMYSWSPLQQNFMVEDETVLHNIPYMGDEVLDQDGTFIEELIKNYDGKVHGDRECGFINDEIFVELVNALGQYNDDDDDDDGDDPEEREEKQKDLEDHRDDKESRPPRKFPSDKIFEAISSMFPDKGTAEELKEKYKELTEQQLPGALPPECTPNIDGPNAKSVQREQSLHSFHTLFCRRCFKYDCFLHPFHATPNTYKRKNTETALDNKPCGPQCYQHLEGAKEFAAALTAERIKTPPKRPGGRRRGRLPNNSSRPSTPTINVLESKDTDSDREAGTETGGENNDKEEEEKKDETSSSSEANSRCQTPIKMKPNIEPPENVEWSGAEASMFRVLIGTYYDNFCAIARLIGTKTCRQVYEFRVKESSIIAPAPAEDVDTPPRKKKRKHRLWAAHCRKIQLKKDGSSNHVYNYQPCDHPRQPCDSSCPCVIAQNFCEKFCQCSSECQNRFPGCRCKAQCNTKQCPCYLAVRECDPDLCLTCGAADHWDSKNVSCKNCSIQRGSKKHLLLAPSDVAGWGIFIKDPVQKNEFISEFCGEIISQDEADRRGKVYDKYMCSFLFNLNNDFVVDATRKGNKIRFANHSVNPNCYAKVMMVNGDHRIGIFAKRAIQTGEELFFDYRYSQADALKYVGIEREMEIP
Sequence of recombinant EZH2-641F complex (EZH2 Y641F/EED/SUZ12/RbAp48/AEBP2) (O75530 whole entry partner): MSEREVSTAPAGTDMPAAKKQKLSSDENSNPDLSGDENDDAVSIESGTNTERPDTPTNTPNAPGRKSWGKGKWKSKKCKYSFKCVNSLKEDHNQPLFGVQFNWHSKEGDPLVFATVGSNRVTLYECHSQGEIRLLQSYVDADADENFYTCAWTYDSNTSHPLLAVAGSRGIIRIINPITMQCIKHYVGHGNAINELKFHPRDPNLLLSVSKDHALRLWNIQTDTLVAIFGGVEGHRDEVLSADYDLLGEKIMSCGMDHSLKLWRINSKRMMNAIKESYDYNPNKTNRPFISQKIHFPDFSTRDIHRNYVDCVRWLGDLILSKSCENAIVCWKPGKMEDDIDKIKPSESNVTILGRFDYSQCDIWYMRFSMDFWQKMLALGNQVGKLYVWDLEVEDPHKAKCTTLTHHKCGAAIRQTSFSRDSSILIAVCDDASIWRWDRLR
Sequence of recombinant EZH2-641F complex (EZH2 Y641F/EED/SUZ12/RbAp48/AEBP2) (Q15022 whole entry partner): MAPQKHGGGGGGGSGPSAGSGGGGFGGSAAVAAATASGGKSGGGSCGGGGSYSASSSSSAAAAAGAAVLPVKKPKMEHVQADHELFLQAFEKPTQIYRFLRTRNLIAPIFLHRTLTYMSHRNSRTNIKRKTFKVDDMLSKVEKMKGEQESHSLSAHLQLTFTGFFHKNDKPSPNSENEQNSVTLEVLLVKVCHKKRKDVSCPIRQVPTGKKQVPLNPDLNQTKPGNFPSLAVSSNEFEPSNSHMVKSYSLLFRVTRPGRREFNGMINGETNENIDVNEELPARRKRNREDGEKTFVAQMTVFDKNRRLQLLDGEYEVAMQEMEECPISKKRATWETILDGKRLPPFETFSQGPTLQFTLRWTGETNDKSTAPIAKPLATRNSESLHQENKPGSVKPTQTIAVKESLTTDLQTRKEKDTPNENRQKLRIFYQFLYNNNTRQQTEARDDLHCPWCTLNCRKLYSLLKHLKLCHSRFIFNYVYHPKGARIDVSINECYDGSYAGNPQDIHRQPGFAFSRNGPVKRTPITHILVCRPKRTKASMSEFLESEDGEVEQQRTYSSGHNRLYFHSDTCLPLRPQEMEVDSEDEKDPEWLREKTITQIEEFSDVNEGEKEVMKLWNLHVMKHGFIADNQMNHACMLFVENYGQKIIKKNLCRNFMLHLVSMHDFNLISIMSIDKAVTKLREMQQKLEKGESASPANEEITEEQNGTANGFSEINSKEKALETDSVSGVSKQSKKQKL
Sequence of recombinant EZH2-641F complex (EZH2 Y641F/EED/SUZ12/RbAp48/AEBP2) (Q09028 whole entry partner): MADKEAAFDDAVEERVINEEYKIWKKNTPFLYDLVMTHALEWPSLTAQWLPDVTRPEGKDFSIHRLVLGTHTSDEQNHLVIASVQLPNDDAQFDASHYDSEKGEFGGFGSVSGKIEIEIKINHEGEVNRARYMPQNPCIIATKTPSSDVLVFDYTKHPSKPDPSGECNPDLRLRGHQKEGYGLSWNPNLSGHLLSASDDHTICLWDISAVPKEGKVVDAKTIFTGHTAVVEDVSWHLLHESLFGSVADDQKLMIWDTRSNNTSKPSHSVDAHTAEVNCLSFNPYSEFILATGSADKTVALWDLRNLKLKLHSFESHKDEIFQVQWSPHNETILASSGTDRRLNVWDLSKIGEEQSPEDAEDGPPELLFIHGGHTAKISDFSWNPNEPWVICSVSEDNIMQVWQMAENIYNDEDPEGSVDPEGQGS
Sequence of recombinant EZH2-641F complex (EZH2 Y641F/EED/SUZ12/RbAp48/AEBP2) (Q6ZN18 whole entry partner): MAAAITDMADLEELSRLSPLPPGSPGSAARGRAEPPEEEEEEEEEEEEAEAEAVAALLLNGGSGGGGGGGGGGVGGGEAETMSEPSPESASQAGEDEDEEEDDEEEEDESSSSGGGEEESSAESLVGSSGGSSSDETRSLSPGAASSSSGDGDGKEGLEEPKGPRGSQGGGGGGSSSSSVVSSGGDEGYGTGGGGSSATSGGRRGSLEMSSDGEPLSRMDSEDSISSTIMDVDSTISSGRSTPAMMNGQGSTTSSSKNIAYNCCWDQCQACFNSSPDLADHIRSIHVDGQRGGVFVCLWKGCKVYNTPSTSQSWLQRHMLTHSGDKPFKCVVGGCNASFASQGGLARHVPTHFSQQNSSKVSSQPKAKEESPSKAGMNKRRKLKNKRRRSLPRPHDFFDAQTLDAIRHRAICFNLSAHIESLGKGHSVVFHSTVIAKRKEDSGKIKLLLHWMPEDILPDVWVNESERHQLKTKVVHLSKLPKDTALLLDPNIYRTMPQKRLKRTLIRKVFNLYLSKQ

| EC50 | Structure (SMILES) |
| --- | --- |
| ≤ 5 µM | CCN(c1cc(-c2ccc(CN3CCOCC3)cc2)cc(C(=O)NCC2C(=O)NC(C)c3cccc(F)c32)c1C)C1CCOCC1 (stereo not shown) [Example 5, 5-(Ethyl(tetrahydro-2H-pyran-4-yl)amino)-N-((5-fluoro-1-methyl-3-oxo-1,2,3,4-tetrahydroisoquinolin-4-yl)methyl)-4-methyl-4′-(morpholinomethyl)-[1,1′-biphenyl]-3-carboxamide] |
| ≤ 5 µM | CCC(C)n1cc(C)c2c(C(=O)NCc3c(=O)[nH]c(C)c4ccccc34)cc(-c3ccc(N4CCN(C(=O)OC(C)(C)C)CC4)nc3)cc21 (stereo not shown) [Example 9, tert-Butyl 4-(5-(1-(sec-butyl)-3-methyl-4-(((1-methyl-3-oxo-2,3-dihydroisoquinolin-4-yl)methyl)carbamoyl)-1H-indol-6-yl)pyridin-2-yl)piperazine-1-carboxylate] |
| ≤ 0.5 µM | CCC(C)n1cc(C)c2c(C(=O)NCc3c(=O)[nH]c(C)c4ccccc34)cc(-c3ccc(N4CCNCC4)nc3)cc21 (stereo not shown) [Example 10, 1-(sec-Butyl)-3-methyl-N-((1-methyl-3-oxo-2,3-dihydroisoquinolin-4-yl)methyl)-6-(6-(piperazin-1-yl)pyridin-3-yl)-1H-indole-4-carboxamide] |
| ≤ 5 µM | Cc1[nH]c(=O)c(CNC(=O)c2cc3c(c(-c4ccc(N5CCNCC5)nc4)c2)OC(C)(C)C3)c2ccccc12 [Example 17, 2,2-Dimethyl-N-((1-methyl-3-oxo-2,3-dihydroisoquinolin-4-yl)methyl)-7-(6-(piperazin-1-yl)pyridin-3-yl)-2,3-dihydrobenzofuran-5-carboxamide] |
